Measurements: ChEMBL document CHEMBL1909046, “DrugMatrix in vitro pharmacology data”

Key:
[1] = DRUGMATRIX: Tumor Necrosis Factor (TNF), Non-Selective radioligand binding (ligand: [125I] TNF-alpha); format: cell membranes, Membrane; details: u-937; Not Active = under 50% inhibition at 10 µM
[2] = target: T1, Receptor-type tyrosine-protein phosphatase C (Homo sapiens, UniProt P08575); set-up: species or system Escherichia coli;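 further: inhibition of CD45 enzyme activity measured using DiFMUP as substrate; in other assays of this panel Not Active means under 50% inhibition at 10 µM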
T1 sequence (P08575 whole entry): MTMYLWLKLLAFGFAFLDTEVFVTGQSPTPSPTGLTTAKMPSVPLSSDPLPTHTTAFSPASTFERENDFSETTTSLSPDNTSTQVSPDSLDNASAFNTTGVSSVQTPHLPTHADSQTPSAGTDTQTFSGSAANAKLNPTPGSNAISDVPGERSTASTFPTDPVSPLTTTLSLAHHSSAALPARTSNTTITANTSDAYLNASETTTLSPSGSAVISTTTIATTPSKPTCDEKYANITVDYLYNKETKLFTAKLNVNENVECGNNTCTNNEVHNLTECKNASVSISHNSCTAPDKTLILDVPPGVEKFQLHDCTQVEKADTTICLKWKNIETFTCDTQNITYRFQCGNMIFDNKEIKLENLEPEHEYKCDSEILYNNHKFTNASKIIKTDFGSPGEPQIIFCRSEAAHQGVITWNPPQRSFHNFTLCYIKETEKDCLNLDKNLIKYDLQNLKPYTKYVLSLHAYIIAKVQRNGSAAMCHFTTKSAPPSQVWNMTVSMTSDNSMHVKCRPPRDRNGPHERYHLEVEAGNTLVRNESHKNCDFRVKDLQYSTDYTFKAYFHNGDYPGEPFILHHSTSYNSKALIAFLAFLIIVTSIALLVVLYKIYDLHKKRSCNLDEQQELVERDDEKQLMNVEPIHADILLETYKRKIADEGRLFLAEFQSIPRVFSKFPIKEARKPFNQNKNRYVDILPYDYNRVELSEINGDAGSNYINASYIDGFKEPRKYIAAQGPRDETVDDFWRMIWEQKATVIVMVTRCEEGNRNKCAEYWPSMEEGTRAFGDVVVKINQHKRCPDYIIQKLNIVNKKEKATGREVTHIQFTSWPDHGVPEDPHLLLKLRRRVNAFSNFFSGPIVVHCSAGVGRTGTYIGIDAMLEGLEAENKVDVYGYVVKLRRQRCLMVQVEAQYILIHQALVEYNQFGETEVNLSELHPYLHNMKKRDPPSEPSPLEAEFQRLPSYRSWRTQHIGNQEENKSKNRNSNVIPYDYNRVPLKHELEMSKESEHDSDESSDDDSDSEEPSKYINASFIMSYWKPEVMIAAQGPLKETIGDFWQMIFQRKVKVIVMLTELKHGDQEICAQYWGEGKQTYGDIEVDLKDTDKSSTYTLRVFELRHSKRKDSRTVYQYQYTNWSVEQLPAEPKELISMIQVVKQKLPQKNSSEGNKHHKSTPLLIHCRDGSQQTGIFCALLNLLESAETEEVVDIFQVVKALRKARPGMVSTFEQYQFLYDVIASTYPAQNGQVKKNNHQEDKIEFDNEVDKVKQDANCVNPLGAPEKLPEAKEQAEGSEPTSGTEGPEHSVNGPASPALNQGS

[3] = target: Kappa-type opioid receptor (Homo sapiens, UniProt P41145); test: DRUGMATRIX: Opiate kappa (OP2, KOP) radioligand binding (ligand: [3H] Diprenorphine); format: cell membranes, HEK293, Membrane; details: hek293; Not Active = under 50% inhibition at 10 µM
Chain of Kappa-type opioid receptor (P41145 whole entry): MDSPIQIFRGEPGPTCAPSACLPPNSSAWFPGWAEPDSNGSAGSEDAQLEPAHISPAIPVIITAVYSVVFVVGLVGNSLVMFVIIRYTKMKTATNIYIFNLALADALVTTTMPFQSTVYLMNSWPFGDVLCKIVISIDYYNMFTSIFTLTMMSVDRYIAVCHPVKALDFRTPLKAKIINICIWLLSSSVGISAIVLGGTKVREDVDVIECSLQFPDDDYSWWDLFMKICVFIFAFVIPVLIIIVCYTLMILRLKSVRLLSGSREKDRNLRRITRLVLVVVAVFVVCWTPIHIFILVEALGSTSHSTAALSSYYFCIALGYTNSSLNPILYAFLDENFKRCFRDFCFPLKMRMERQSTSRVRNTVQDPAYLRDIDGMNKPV

[4] = target: T2, B2 bradykinin receptor (Homo sapiens, UniProt P30411); format: cell membranes, Membrane; details: chem-1; further: in other assays of this panel Not Active means under 50% inhibition at 10 µM
T2 sequence (P30411 whole entry): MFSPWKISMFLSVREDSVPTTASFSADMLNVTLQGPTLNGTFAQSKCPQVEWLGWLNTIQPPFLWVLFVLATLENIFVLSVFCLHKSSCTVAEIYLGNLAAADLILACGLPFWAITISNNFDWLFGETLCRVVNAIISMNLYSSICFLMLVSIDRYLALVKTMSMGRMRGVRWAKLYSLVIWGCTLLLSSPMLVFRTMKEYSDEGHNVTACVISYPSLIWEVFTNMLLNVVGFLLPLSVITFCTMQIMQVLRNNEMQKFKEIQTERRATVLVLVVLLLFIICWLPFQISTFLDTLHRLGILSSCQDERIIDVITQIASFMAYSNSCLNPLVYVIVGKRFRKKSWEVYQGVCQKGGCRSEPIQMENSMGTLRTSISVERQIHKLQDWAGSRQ

[5] = DRUGMATRIX: Atrial Natriuretic Factor (ANF) radioligand binding (ligand: [125I] ANF (rat)); format: cell membranes, Cavia porcellus, Dunkin-Hartley, Adrenal gland, Membrane; details: Not Active = under 50% inhibition at 10 µM
[6] = target: T3, Calcitonin receptor (Homo sapiens, UniProt P30988); format: cell membranes, Membrane; details: t47d; further: in other assays of this panel Not Active means under 50% inhibition at 10 µM
T3 sequence (P30988 whole entry): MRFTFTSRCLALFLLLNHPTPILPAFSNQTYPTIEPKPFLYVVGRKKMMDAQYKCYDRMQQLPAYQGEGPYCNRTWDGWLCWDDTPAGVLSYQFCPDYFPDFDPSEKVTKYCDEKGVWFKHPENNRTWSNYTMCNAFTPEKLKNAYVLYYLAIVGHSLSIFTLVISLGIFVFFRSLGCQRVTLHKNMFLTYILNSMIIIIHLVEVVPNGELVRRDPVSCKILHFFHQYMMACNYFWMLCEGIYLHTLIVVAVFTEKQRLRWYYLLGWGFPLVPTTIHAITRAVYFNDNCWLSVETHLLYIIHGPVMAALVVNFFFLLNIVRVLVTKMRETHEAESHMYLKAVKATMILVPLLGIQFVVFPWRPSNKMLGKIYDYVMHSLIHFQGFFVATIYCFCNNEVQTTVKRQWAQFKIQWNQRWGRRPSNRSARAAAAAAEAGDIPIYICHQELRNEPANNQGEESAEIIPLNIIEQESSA

[7] = target: T4, Cathepsin G (Homo sapiens, UniProt P08311); format: tissue-based; details: neutrophil;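 further: inhibition of Cathepsin G enzyme activity, tested on an AMC-conjugated peptide substrate; in other assays of this panel Not Active means under 50% inhibition at 10 µM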
T4 sequence (P08311 whole entry): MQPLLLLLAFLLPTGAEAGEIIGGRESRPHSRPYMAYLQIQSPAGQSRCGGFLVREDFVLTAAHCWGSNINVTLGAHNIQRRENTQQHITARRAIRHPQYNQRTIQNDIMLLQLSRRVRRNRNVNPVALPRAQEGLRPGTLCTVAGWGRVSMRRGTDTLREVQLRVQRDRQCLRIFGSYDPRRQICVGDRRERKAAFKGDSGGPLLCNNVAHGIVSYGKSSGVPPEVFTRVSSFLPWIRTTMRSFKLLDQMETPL

O=C(O)P(=O)(O)O [FOSCARNET]
Not Active: IC50 [1] | Ki [1] | IC50 [2] | IC50 [3] | IC50 [4] | IC50 [5] | Ki [5] | IC50 [6] | IC50 [7]

C[C@H]1[C@H](NC(=O)/C(=N\OC(C)(C)C(=O)O)c2csc(N)n2)C(=O)N1S(=O)(=O)O [AZTREONAM]
Not Active: IC50 [1] | Ki [1] | IC50 [2] | IC50 [3] | IC50 [4] | IC50 [5] | Ki [5] | IC50 [6] | IC50 [7]

CN1C[C@@H]2C[C@H]1CN2c1cc2c(cc1F)c(=O)c(C(=O)O)cn2C1CC1 [DANOFLOXACIN]
Not Active: IC50 [1] | Ki [1] | IC50 [2] | IC50 [3] | IC50 [4] | IC50 [5] | Ki [5] | IC50 [6] | IC50 [7]

CC(=O)OCC(=O)[C@@]12OC(C)(C)O[C@@H]1C[C@H]1[C@@H]3C[C@H](F)C4=CC(=O)C=C[C@]4(C)[C@@]3(F)[C@@H](O)C[C@@]12C [FLUOCINONIDE]
Not Active: IC50 [1] | Ki [1] | IC50 [2] | IC50 [3] | IC50 [4] | IC50 [5] | Ki [5] | IC50 [6] | IC50 [7]

CN1CCCC(CN2c3ccccc3Sc3ccccc32)C1 (configuration not stated) [MEPAZINE]
Not Active: IC50 [1] | Ki [1] | IC50 [2] | IC50 [3] | IC50 [4] | IC50 [5] | Ki [5] | IC50 [6] | IC50 [7]

NCCCNCCSP(=O)(O)O [AMIFOSTINE]
Not Active: IC50 [1] | Ki [1] | IC50 [2] | IC50 [3] | IC50 [4] | IC50 [5] | Ki [5] | IC50 [6] | IC50 [7]

CC[C@]1(O)C[C@@H]2CN(CCc3c([nH]c4ccccc34)[C@@](C(=O)OC)(c3cc4c(cc3OC)N(C)[C@H]3[C@@](O)(C(N)=O)[C@H](O)[C@]5(CC)C=CCN6CC[C@]43[C@@H]65)C2)C1 [VINDESINE]
Not Active: IC50 [1] | Ki [1] | IC50 [2] | IC50 [3] | IC50 [4] | IC50 [5] | Ki [5] | IC50 [6] | IC50 [7]

CCn1cc(C(=O)O)c(=O)c2cc(F)c(N3CCNC(C)C3)c(F)c21 (configuration not stated) [LOMEFLOXACIN]
Not Active: IC50 [1] | Ki [1] | IC50 [2] | IC50 [3] | IC50 [4] | IC50 [5] | Ki [5] | IC50 [6] | IC50 [7]

CN1CCN(c2c(F)cc3c(=O)c(C(=O)O)cn(CCF)c3c2F)CC1 [FLEROXACIN]
Not Active: IC50 [1] | Ki [1] | IC50 [2] | IC50 [3] | IC50 [4] | IC50 [5] | Ki [5] | IC50 [6] | IC50 [7]

CC(C)(C(=O)O)c1ccc(C(O)CCCN2CCC(C(O)(c3ccccc3)c3ccccc3)CC2)cc1 (configuration not stated) [FEXOFENADINE]
Not Active: IC50 [1] | Ki [1] | IC50 [2] | IC50 [3] | IC50 [4] | IC50 [5] | Ki [5] | IC50 [6] | IC50 [7]

C[C@H]1COc2c(N3CCN(C)CC3)c(F)cc3c(=O)c(C(=O)O)cn1c23.C[C@H]1COc2c(N3CCN(C)CC3)c(F)cc3c(=O)c(C(=O)O)cn1c23.O [LEVOFLOXACIN]
Not Active: IC50 [1] | Ki [1] | IC50 [2] | IC50 [3] | IC50 [4] | IC50 [5] | Ki [5] | IC50 [6] | IC50 [7]

NC(=O)c1cccc(N)c1 [3-AMINOBENZAMIDE]
Not Active: IC50 [1] | Ki [1] | IC50 [2] | IC50 [3] | IC50 [4] | IC50 [5] | Ki [5] | IC50 [6] | IC50 [7]

CC(=O)OC[C@H]1O[C@@H](n2ncc(=O)[nH]c2=O)[C@H](OC(C)=O)[C@@H]1OC(C)=O [AZARIBINE]
Not Active: IC50 [1] | Ki [1] | IC50 [2] | IC50 [3] | IC50 [4] | IC50 [5] | Ki [5] | IC50 [6] | IC50 [7]

NC(=O)N1c2ccccc2CC(=O)c2ccccc21 [OXCARBAZEPINE]
Not Active: IC50 [1] | Ki [1] | IC50 [2] | IC50 [3] | IC50 [4] | IC50 [5] | Ki [5] | IC50 [6] | IC50 [7]

C#C[C@]1(O)CC[C@H]2[C@@H]3CCC4=CC(=O)CC[C@]4(C)[C@H]3CC[C@@]21C [ETHISTERONE]
Not Active: IC50 [1] | Ki [1] | IC50 [2] | IC50 [3] | IC50 [4] | IC50 [5] | Ki [5] | IC50 [6] | IC50 [7]

CCC1=C(C)CN(C(=O)NCCc2ccc(S(=O)(=O)NC(=O)N[C@H]3CC[C@H](C)CC3)cc2)C1=O [GLIMEPIRIDE]
Not Active: IC50 [1] | Ki [1] | IC50 [2] | IC50 [3] | IC50 [4] | IC50 [5] | Ki [5] | IC50 [6] | IC50 [7]

O=C(O)CCCc1cccs1
Not Active: IC50 [1] | Ki [1] | IC50 [2] | IC50 [3] | IC50 [4] | IC50 [5] | Ki [5] | IC50 [6] | IC50 [7]

Cc1ccc(C)c(OCCCC(C)(C)C(=O)O)c1 [GEMFIBROZIL]
Not Active: IC50 [1] | Ki [1] | IC50 [2] | IC50 [3] | IC50 [4] | IC50 [5] | Ki [5] | IC50 [6] | IC50 [7]
